Measurements reported in US20250099448A1, “HETEROCYCLIC COMPOUNDS” (Hoffmann-La Roche Inc., priority 2022, published 2025).

What follows are compounds tested against T1, MAGL protein (Homo sapiens, UniProt Q99685) (assay: 2-AG assay: MAGL inhibitory activity by hydrolysis of 2-arachidonoylglycerol to arachidonic acid, followed by mass spectrometry). Conditions: 8 μM 2-arachidonoylglycerol, 15 min preincubation, 30 min reaction at RT, RapidFire MS readout.
T1 sequence (Q99685 1-303): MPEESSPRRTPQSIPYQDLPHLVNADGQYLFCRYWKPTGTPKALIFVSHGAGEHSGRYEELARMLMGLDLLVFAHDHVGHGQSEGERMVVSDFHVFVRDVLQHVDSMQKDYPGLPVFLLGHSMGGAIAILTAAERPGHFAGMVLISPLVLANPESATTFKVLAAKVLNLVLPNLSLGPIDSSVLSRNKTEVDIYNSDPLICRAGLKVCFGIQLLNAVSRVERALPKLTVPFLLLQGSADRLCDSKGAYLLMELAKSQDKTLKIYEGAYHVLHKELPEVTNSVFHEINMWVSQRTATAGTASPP
Assay type: biochemical
Summary of the method: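 MAGL was preincubated 15 min at RT with compound (12.5 to […], 3-fold steps) in 50 mM TRIS, 1 mM EDTA, 0.01% Tween-20, 2.5% DMSO. The reaction ran 30 min at RT with 8 μM 2-AG. Arachidonic acid was quantified by RapidFire SPE-MS/MS against a d8-arachidonic acid internal standard.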

Row | Structure (SMILES) | IC50
1 | O=C(N1CC2(CC(c3nc(C4CC4)n[nH]3)C2)C1)N1CC2(CN(Cc3ccn(C(F)(F)F)n3)C2)C1 [compound 601] | 26.4 nM
2 | Cn1nc(CC2CC3(C2)CN(C(=O)N2CC4(CC(c5nc(C6(F)CC6)n[nH]5)C4)C2)C3)cc1C(F)(F)F [compound 602] | 0.11 nM
3 | N=S(=O)(c1ccc(CC2CC3(C2)CN(C(=O)N2CC4(CC(c5nc(C6CC(F)(F)C6)n[nH]5)C4)C2)C3)cc1)C(F)(F)F (stereo not drawn) [compound 603] | 34.4 nM
4 | O=C(N1CC2(CC(Cc3cccc(S(=O)(=O)C(F)(F)F)c3)C2)C1)N1CC2(CC(c3nc(C4CC(F)(F)C4)n[nH]3)C2)C1 [compound 604] | 6.89 nM
5 | N#Cc1ccc(OC2CC3(C2)CN(C(=O)N2CC4(CC(c5nc(C6CC6)n[nH]5)C4)C2)C3)cc1C(F)(F)F [compound 605] | 0.86 nM
6 | N#Cc1cc(CC2CC3(C2)CN(C(=O)N2CC4(CC(c5nnc(C6(O)CC6)[nH]5)C4)C2)C3)cnc1C(F)(F)F [compound 606] | 5.17 nM
7 | O=C(N1CC2(CC(Cc3cn[nH]c3C(F)(F)F)C2)C1)N1CC2(CC(c3nc(C4CC4)n[nH]3)C2)C1 [compound 607] | 0.08 nM
8 | O=C(N1CC2(CC(c3nc(C4CC4)n[nH]3)C2)C1)N1CC2(CN(Cc3cc(C(F)(F)F)on3)C2)C1 [compound 609] | 8.32 nM
9 | O=C(N1CC2(CC(Cc3cc(C(F)F)[nH]n3)C2)C1)N1CC2(CC(c3nc(C4CC4)n[nH]3)C2)C1 [compound 610] | 0.4 nM
10 | N#Cc1cc(C(F)(F)F)ncc1C[C@H]1CCC2(C1)CN(C(=O)N1CC3(CC(c4nnc(C5CC5)[nH]4)C3)C1)C2 [compound 611] | 0.68 nM
11 | O=C(N1CC2(CC(c3nc(C4CC4)n[nH]3)C2)C1)N1CC2(CC[C@@H](Cc3ccc(S(=O)(=O)C(F)(F)F)cc3)C2)C1 [compound 612] | 0.13 nM
12 | O=C(N1CC2(CC(Cc3ncc(Cl)cc3F)C2)C1)N1CC2(CC(c3nc(C4CC4)n[nH]3)C2)C1 [compound 613] | 0.91 nM
13 | O=C(N1CC2(CC(c3nc(C4CC4)n[nH]3)C2)C1)N1CC2(CN(Cc3cc(C4CCC4)[nH]n3)C2)C1 [compound 614] | 5.49 nM
14 | O=C(N1CC2(CC(Cc3cc(C(F)F)[nH]n3)C2)C1)N1CC2(CC(c3nc(C4(O)CC4)n[nH]3)C2)C1 [compound 615] | 1.65 nM
15 | O=C(N1CC2(CC(Cc3ccc(S(=O)(=O)C(F)(F)F)cn3)C2)C1)N1CC2(CC(c3nc(C4(O)CC4)n[nH]3)C2)C1 [compound 616] | 1.01 nM
16 | O=C(N1CC2(CC(Cc3ncc(F)cc3Cl)C2)C1)N1CC2(CC(c3nc(C4CC(F)(F)C4)n[nH]3)C2)C1 [compound 617] | 8.16 nM
17 | O=C(N1CC2(CC(c3nc(C4CC4)n[nH]3)C2)C1)N1CC2(CN(Cc3ccn(CC(F)(F)F)n3)C2)C1 [compound 618] | 95.1 nM
18 | O=C(N1CC2(CC(Oc3ccc(Cl)cn3)C2)C1)N1CC2(CC(c3nc(C4CC4)n[nH]3)C2)C1 [compound 619] | 0.79 nM
19 | O=C(N1CC2(CC(Cc3ncc(C(F)(F)F)cc3F)C2)C1)N1CC2(CC(c3ncn[nH]3)C2)C1 [compound 620] | 187 nM
20 | O=C(N1CC2(CC(Cn3cc(C(F)(F)F)ccc3=O)C2)C1)N1CC2(CC(c3nc(C4(O)CC4)n[nH]3)C2)C1 [compound 621] | 3.62 nM
21 | O=C(N1CC2(CC(Oc3ncc(F)cc3Cl)C2)C1)N1CC2(CC(c3nc(C4CC4)n[nH]3)C2)C1 [compound 622] | 0.63 nM

Row | Structure (SMILES) | IC50
22 | Cn1nc(C2CC2)cc1CN1CC2(C1)CN(C(=O)N1CC3(CC(c4nc(C5CC5)n[nH]4)C3)C1)C2 [compound 623] | 12.6 nM
23 | O=C(N1CC2(CC(c3nc(C4CC4)n[nH]3)C2)C1)N1CC2(CN(Cc3ncc(C(F)F)s3)C2)C1 [compound 624] | 8.21 nM
24 | O=C(N1CC2(CC(c3nc(C4CC4)n[nH]3)C2)C1)N1CC2(CN(Cc3cc(C(F)(F)F)[nH]n3)C2)C1 [compound 625] | 8.75 nM
25 | O=C(N1CC2(CC(Cc3ccc4ncnn4c3)C2)C1)N1CC2(CC(c3nc(C4(O)CC4)n[nH]3)C2)C1 [compound 626] | 56.4 nM
26 | O=C(N1CC2(CC(Cc3cccc(S(=O)(=O)C(F)(F)F)c3)C2)C1)N1CC2(CC(c3nc(C4(F)CC4)n[nH]3)C2)C1 [compound 627] | 0.05 nM
27 | O=C(N1CC2(CC(c3nc(C4CC4)n[nH]3)C2)C1)N1CC2(CN(Cc3cnn(C(F)F)c3)C2)C1 [compound 628] | 149 nM
28 | N#Cc1ccc(CC2CC3(C2)CN(C(=O)N2CC4(CC(c5nc(C6(O)CC6)n[nH]5)C4)C2)C3)cc1C(F)(F)F [compound 629] | 1.45 nM
29 | O=C(N1CC2(CC(c3cnc(C(F)(F)F)nc3)C2)C1)N1CC2(CC(c3nnc(C4CC4)[nH]3)C2)C1 [compound 630] | 1.36 nM
30 | O=C(N1CC2(CC(Oc3cnn(CC(F)(F)F)c3)C2)C1)N1CC2(CC(c3nc(C4CC4)n[nH]3)C2)C1 [compound 631] | 10.7 nM
31 | CS(=O)(=O)c1cc(C(F)(F)F)ccc1CC1CC2(C1)CN(C(=O)N1CC3(CC(c4ncn[nH]4)C3)C1)C2 [compound 633] | 1310 nM
32 | O=C(N1CC2(CC(Cn3cc(C(F)(F)F)cn3)C2)C1)N1CC2(CC(c3nc(C4COC4)n[nH]3)C2)C1 [compound 634] | 104 nM
33 | O=C(N1CC(c2ccc(C3(C(F)(F)F)CC3)cc2)C1)N1CC2(CC(c3ncn[nH]3)C2)C1 [compound 635] | 950 nM
34 | O=C(N1CC2(CC(c3nc(C4CC4)n[nH]3)C2)C1)N1CC2(CN(Cc3nc(C4CC4)ns3)C2)C1 [compound 637] | 7.44 nM
35 | N=S(=O)(c1ccc(C2CN(C(=O)N3CC4(CC(c5nc(C6CC6)n[nH]5)C4)C3)C2)cc1)C(F)(F)F (stereo not drawn) [compound 638] | 0.52 nM
36 | N=S(=O)(c1cccc(CC2CC3(C2)CN(C(=O)N2CC4(CC(c5nc(C6(O)CC6)n[nH]5)C4)C2)C3)c1)C(F)(F)F (stereo not drawn) [compound 639] | 0.21 nM
37 | Cc1c(CN2CC3(C2)CN(C(=O)N2CC4(CC(c5nc(C6CC6)n[nH]5)C4)C2)C3)cnn1CC(F)(F)F [compound 640] | 43.7 nM
38 | O=C(N1CC2(CC(c3nc(C4CC4)n[nH]3)C2)C1)N1CC2(CN(Cc3ncc(C(F)(F)F)[nH]3)C2)C1 [compound 641] | 67.4 nM
39 | O=C(N1CC2(CC(c3nc(C4CC4)n[nH]3)C2)C1)N1CC2(CN(Cc3cnc(C(F)(F)F)o3)C2)C1 [compound 642] | 27.5 nM
40 | O=C(N1CC2(CC(c3nc(C4(F)CC4)n[nH]3)C2)C1)N1CC2(CN(Cc3nc(C(F)(F)F)cs3)C2)C1 [compound 643] | 6.67 nM
41 | O=C(N1CC2(CC(Cc3cc(C4CC4)n[nH]3)C2)C1)N1CC2(CC(c3nc(C4CC4)n[nH]3)C2)C1 [compound 644] | 0.22 nM
42 | O=C(N1CC2(CC(Cc3ccc4ncnn4c3)C2)C1)N1CC2(CC(c3nc(C4CC4)n[nH]3)C2)C1 [compound 645] | 6.54 nM

More lines, now with the values ahead:

Row | IC50 | Structure (SMILES)
43 | 424 nM | O=C(N1CC(c2ccc(N3CC(O)(C(F)(F)F)C3)nc2)C1)N1CC2(CC(c3nc(C4CC(F)(F)C4)n[nH]3)C2)C1 [compound 646]
44 | 0.97 nM | O=C(N1CC2(CC(Cc3ncc(C(F)(F)F)cn3)C2)C1)N1CC2(CC(c3nc(C4(F)CC4)n[nH]3)C2)C1 [compound 647]
45 | 0.12 nM | N=S(=O)(c1cc(F)cc(CC2CC3(C2)CN(C(=O)N2CC4(CC(c5nc(C6CC6)n[nH]5)C4)C2)C3)c1)C(F)(F)F (stereo not drawn) [compound 649]
46 | 9.74 nM | Cn1nc(C(F)(F)F)cc1CN1CC2(C1)CN(C(=O)N1CC3(CC(c4nc(C5CC5)n[nH]4)C3)C1)C2 [compound 650]
47 | 9.48 nM | O=C(N1CC2(CC(c3nc(C4CC4)n[nH]3)C2)C1)N1CC2(CN(Cc3cnc(C(F)F)s3)C2)C1 [compound 651]
48 | 0.19 nM | O=C(N1CC2(CC(Cc3ccc(S(=O)(=O)C(F)(F)F)cn3)C2)C1)N1CC2(CC(c3nc(C4(F)CC4)n[nH]3)C2)C1 [compound 652]
49 | 1 nM | O=C(N1CC2(CC(c3nc(C4(O)CC4)n[nH]3)C2)C1)N1CC2(CC[C@H](Cc3ccc(S(=O)(=O)C(F)(F)F)cc3)C2)C1 [compound 653]
50 | 0.04 nM | O=C(N1CC2(CC(Cc3cc(F)cc(S(=O)(=O)C(F)(F)F)c3)C2)C1)N1CC2(CC(c3nc(C4CC4)n[nH]3)C2)C1 [compound 654]
51 | 557 nM | O=C(N1CC2(CC(c3nc(C4CC(F)(F)C4)n[nH]3)C2)C1)N1CC2(CN(Cc3sncc3C(F)(F)F)C2)C1 [compound 655]
52 | 39.7 nM | O=C(N1CC2(CC(c3nc(C4CC4)n[nH]3)C2)C1)N1CC2(CN(Cc3ccnn3C(F)(F)F)C2)C1 [compound 656]
53 | 17.2 nM | N=S(=O)(c1cccc(CC2CC3(C2)CN(C(=O)N2CC4(CC(c5nc(C6CC(F)(F)C6)n[nH]5)C4)C2)C3)c1)C(F)(F)F (stereo not drawn) [compound 657]
54 | 412 nM | Cn1ncc(C(F)(F)F)c1CN1CC2(C1)CN(C(=O)N1CC3(CC(c4nc(C5CC(F)(F)C5)n[nH]4)C3)C1)C2 [compound 658]
55 | 40.9 nM | CC(C)(C)c1c[nH]c(CN2CC3(C2)CN(C(=O)N2CC4(CC(c5nc(C6CC6)n[nH]5)C4)C2)C3)n1 [compound 659]
56 | 0.79 nM | CS(=N)(=O)c1cc(CC2CC3(C2)CN(C(=O)N2CC4(CC(c5nc(C6CC6)n[nH]5)C4)C2)C3)cc(C(F)(F)F)c1 (stereo not drawn) [compound 660]
57 | 21.9 nM | O=C(N1CC2(CC(Cc3ccc(C(F)(F)F)cn3)C2)C1)N1CC2(CC(c3nc(C4CC(F)(F)C4)n[nH]3)C2)C1 [compound 661]
58 | 11.9 nM | O=C(N1CC2(CC(c3nc(C4CC4)n[nH]3)C2)C1)N1CC2(CN(Cc3nc(C(F)(F)F)no3)C2)C1 [compound 662]
59 | 13.1 nM | O=C(N1CC2(CC(c3nc(C4CC4)n[nH]3)C2)C1)N1CC2(CN(Cc3conc3C(F)(F)F)C2)C1 [compound 663]
60 | 2.74 nM | Cn1ncc(C(F)(F)F)c1CN1CC2(C1)CN(C(=O)N1CC3(CC(c4nc(C5CC5)n[nH]4)C3)C1)C2 [compound 664]
